We go through 2 compounds from patent publication US5866570A, “Treatment of vascular leakage and related syndrome such as septic shock by administration of metalloproteinase inhibitors” (Wisconsin Alumni Research Foundation, priority 1994, dated 1999).

Converted amounts (≈) assume the structure as drawn.

Data set [1] addresses T1, E. coli recombinant human 72 kD collagenase type IV (MMP-2), pAPMA activated (Homo sapiens, UniProt P08253).
T1 construct: made in house; host or cells: E. coli
T1 sequence (P08253 110-660): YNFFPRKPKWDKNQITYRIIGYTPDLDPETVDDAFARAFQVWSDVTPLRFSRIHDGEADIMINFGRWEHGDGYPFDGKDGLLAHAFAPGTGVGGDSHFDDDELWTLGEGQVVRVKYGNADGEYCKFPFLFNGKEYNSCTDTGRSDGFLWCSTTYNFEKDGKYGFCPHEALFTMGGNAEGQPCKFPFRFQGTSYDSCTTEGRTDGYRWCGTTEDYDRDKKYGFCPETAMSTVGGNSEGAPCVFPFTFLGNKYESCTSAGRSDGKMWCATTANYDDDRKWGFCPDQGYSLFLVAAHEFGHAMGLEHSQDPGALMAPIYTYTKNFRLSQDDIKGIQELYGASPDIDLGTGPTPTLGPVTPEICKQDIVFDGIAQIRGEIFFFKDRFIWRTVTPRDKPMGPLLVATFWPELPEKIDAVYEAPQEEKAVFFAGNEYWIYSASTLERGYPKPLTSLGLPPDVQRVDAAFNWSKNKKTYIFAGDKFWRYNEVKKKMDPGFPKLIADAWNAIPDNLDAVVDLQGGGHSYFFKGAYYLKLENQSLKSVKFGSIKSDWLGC
Description: gelatinase assay (3H-gelatin degradation), Example 9. It counts as biochemical. The settings on record: 100 ng activated enzyme, 4 hrs preincubation with inhibitor at 37° C., 3H-gelatin substrate; read-out: IC50, inhibition of collagenase type IV gelatinase activity. The text has this: Type IV collagenases are highly efficient in digesting gelatin. Inhibition of the gelatinase activity of human recombinant collagenase type IV was used as an initial assay for testing the bis(dioxopiperazine)s. The recombinant 72 kD collagenase IV used in the gelatinase assays was made in E. coli from a cDNA insert obtained from Dr. William Stetler-Stevenson (NCI). The protein runs at 72 kD on SDS-PAGE, has gelatinolytic activity in zymogram, is activated by pAPMA, is precipitated by a monoclonal anti-peptide antibody to the pro-region of the 72 kD enzyme, and is inhibited by TIMP-2. Rat tail ^3 H-collagen I (Dupont-NEN) is denatured to become gelatin by heating at 60° C. for 20 min. E. coli recombinant human 72 kD collagenase type IV is activated by incubation with 1 mM pAPMA for 1 hr. at 37° C. 100 ng of activated enzyme is added to each tube containing 50 mM Tris-HCl pH 7.5, 5 mM CaCl2 and 0.005% Brij-35 and pre-incubated with inhibitor or solvent control for 4 hrs. at 37° C. in a total of 25 μl. 10,000 cpm of ^3 H-gelatin substrate in 30 μl is added (final volume of 55 μl per sample) and the reaction mixture is incubated at 37° C. for 2 to 16 hrs. […] Enzyme activity is calculated from the radioactivity in the supernatant and activity of the compounds expressed as percent solvent control.

For data set [2] the following is noted: at 25° C.; cited from earlier work.

Take `CC1(C)O[C@H]2C[C@H](N3CC(=O)NC(=O)C3)[C@@H](N3CC(=O)NC(=O)C3)C[C@@H]2O1` (relative stereo) [Compound 80, (3aα, 5β, 6α, 7aβ)-4,4'-(hexahydro-2,2-dimethyl-1,3-benzodioxole-5,6-diyl)bis(2,6-piperazinedione)]: in data set [1], the IC50 came out at 8 µM.
Regarding `CC(CN1CC(=O)NC(=O)C1)N1CC(=O)NC(=O)C1` (centres unmarked) [razoxane], in data set [2], the solubility in water was 3000 µg/mL (≈ 11.2 mM).
